Earlier results on one molecule are cited in patent EP3913370A1, “METHOD FOR DIAGNOSING CARCINOMAS USING IRGD AS A TUMOR MARKER BOOSTER” (Piiper, Albrecht, priority 2020, dated 2021).

The conditions of data set [1]: in vivo.
The conditions of data set [2]: human, in vivo.

With `N=C(N)NCCC[C@@H]1NC(=O)[C@@H](N)CSSC[C@@H](C(=O)O)NC(=O)[C@H](CC(=O)O)NC(=O)[C@@H]2CCCN2C(=O)CNC(=O)[C@H](CCCCN)NC(=O)[C@H](CC(=O)O)NC(=O)CNC1=O` [iRGD, CRGDKGPDC (SEQ ID No. 1)], the “toxicity associated with administration” value in data set [1] is “no toxicity”. Further, the toxicity in humans entry in data set [2] is recorded as “low toxicity”.
